Measured values published in patent US6436971B2, “Use of PDE 4-specific inhibitors to reduce the severity of a bacterial infection after a respiratory viral infection” (SmithKline Beecham Corporation, priority 2000, dated 2002).

Tested on: S. pneumoniae (strain #0100993)
Assay: Sub-lethal influenza infection followed by S. pneumoniae co-infection, survival (LD50) after PDE 4 inhibitor pretreatment
Type: in vivo, mice

## COc1ccc([C@]2(C#N)CC[C@@H](C(=O)O)CC2)cc1OC1CCCC1 [Ariflo, cis-4-cyano-4-[3-(cyclopentyloxy)-4-methoxyphenyl]cyclohexane-1-carboxylic acid]
10 mg/kg orally once daily on days 0 to 9, S. pneumoniae challenge IN on day 9, control diluent LD50 72
  LD50 of S. pneumoniae in treated mice: 252 cfu/mouse
30 mg/kg orally once daily on days 0 to 9, S. pneumoniae challenge IN on day 9, control diluent LD50 72
  LD50 of S. pneumoniae in treated mice: 221 cfu/mouse
